Counter-ions that a name gives are not always drawn. Like-named read-outs stand apart in the source and are kept apart here.

We go through 14 compounds from patent US20210330611A1, “THERAPY FOR NEUROLOGICAL DISEASES/DISORDERS” (priority 2020, published 2021).

Data set [1] relates to primary rat microglia. The data set is described as follows: Cell toxicity (dead cells, size <150 μm2) in LPS assay. The conditions noted are these: read-out: Cell Toxicity IC50 (uM) [LPS assay].
Data set [2] concerns primary rat microglia.
For data set [3], the system named is LPS-induced microglia activation. Briefly: Image-based assay of LPS-induced microglia activation (HTS and dose response). It counts as cell-based, rat. The conditions noted are these: for inhibition at 10 µM: Rattus norvegicus, Microglia, read-out: LPS % inhibition.
Data set [4] has as its system fibrin- and LPS-induced microglia activation. The data set is described as follows: cells. The class given is cell-based, rat.
Data set [5] deals with primary rat microglia. Briefly: Cell toxicity (dead cells, size <150 μm2) in coated fibrin (cFib) assay.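 On Fibrin % cell toxicity: share of dead cells sized under 150 µm2 at 10 µM in fibrin-stimulated microglia HTS.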 The conditions noted are these: read-out: Cell Toxicity IC50 (uM) [cFib assay].
For data set [6], the system named is primary rat microglia. This is another data set of the same source.
The test system of data set [7] is fibrin-induced microglia activation. Briefly: Image-based assay of fibrin-induced microglia activation (HTS and dose response). The class given is cell-based, rat. The conditions noted are these: for inhibition at 10 µM: Rattus norvegicus, Microglia, read-out: Fibrin % inhibition.
The mark [8] stands for this setting: LPS-induced microglia activation, dose response, read-out: LPS IC50 (uM) (Suppl. Table 7).
The mark [9] stands for this setting: Table 1, dose response 0.001-20 μM, triplicates, primary rat microglia, 48 h, read-out: LPS IC50.
The mark [10] stands for this setting: dose response, LPS-induced microglia activation, read-out: LPS IC50.
[11] abbreviates: primary microglia HTS, LPS stimulation, increased cell size (>800 μm^2) as marker of activation.
[12] abbreviates: HTS of 1907 compounds, quadrant by fibrin and LPS inhibition.
Setting [13] is: hit classification in microglia HTS.
[14] abbreviates: quadrant by fibrin and LPS inhibition in HTS of 1907 compounds.
Setting [15] is: primary microglia HTS, fibrin stimulation, increased cell size (>800 μm^2) as marker of activation.
[16] abbreviates: primary microglia HTS, 10 μM, LPS-stimulated, cell size >800 μm^2 as marker of activation.
The mark [17] stands for this setting: primary microglia HTS, 10 μM, fibrin-stimulated, cell size >800 μm^2 as marker of activation.
Setting [18] is: read-out: LPS IC50 (uM) (Suppl. Table 7).
[19] abbreviates: read-out: Fibrin IC50 (uM) (Suppl. Table 7).

Consider `COc1cc2c(cc1O)CC[C@@H]1[C@@H]2CC[C@]2(C)[C@@H](O)CC[C@@H]12` [2-methoxyestradiol, reference compound], for which the IC50 is more than 20 µM in the data set on primary rat microglia [1] (LPS assay); more than 20 µM with primary rat microglia [1] (Table 3); 5 µM in data set [3] (setting [8]); 5 µM in data set [3] (setting [9]); 5 µM in data set [3] (Table 3, read-out: LPS IC50 (uM) (Suppl. Table 7)); 5 µM in data set [3] (setting [10]). The IC50 in the data set with primary rat microglia [5] (Table 3) is more than 20 µM; in the data set with primary rat microglia [5] (cFib assay) it was more than 20 µM; in data set [7] (Table 1, dose response 0.001-20 μM, triplicates, primary rat microglia, 48 h, read-out: Fibrin IC50), 3 µM; in data set [7] (Table 3, read-out: Fibrin IC50 (uM) (Suppl. Table 7)), 3 µM; in data set [7] (dose response, fibrin-induced microglia activation, read-out: Fibrin IC50) it was 3 µM; in data set [7] (fibrin-induced microglia activation, dose response, read-out: Fibrin IC50 (uM) (Suppl. Table 7)), 3 µM. The “LPS % cell toxicity” value with primary rat microglia [2] was found to be 2%. Also, the LPS % inhibition in data set [3] (setting [11]) came to 65%. Moreover, the Hit entry in data set [4] (HTS hit classification) is given as “HIT (Hits were defined as molecules that exhibited greater than 50% inhibition of either fibrin or LPS activation)”. The “Quadrant (FIG. 5b)” value in data set [4] (setting [12]) was “Q2”; in data set [4] (Table 1, screen at 10 μM), “Q2”; in data set [4] (Table 3, screen at 10 μM) it was “Q2”; in data set [4] (setting [14]) it was “Q2”. Besides, the “Cherry-picked Hit (Suppl. Table 7)” value in data set [4] (Table 3) and in data set [4] (setting [13]) was “HIT (Hits were defined as molecules that exhibited greater than 50% inhibition of either fibrin or LPS activation)” throughout. The “Fibrin % cell toxicity” value with primary rat microglia [6] was 2%. The “Fibrin Selectivity” value in data set [7] was found to be 2. Further, the “Fibrin Selectivity (LOG10)” value in data set [7] worked out at 0.21. Also, the Fibrin % inhibition in data set [7] (setting [15]) is 63%.

Take `CC(=O)[C@@]1(O)CC[C@H]2[C@@H]3C=C(Cl)C4=CC(=O)[C@@H]5C[C@@H]5[C@]4(C)[C@H]3CC[C@@]21C` [Cyproterone, reference compound]: the IC50 (with primary rat microglia [1] (LPS assay); in data set [3] (setting [8]); in data set [3] (setting [9]); in data set [3] (setting [10]); with primary rat microglia [5] (cFib assay)) was more than 20 µM each time. Besides, the “LPS % cell toxicity” value in the data set on primary rat microglia [2] was 0%. In addition, the LPS % inhibition in data set [3] (setting [11]) was found to be 5%. Also, the Hit entry in data set [4] (HTS hit classification) is listed as “HIT (Hits were defined as molecules that exhibited greater than 50% inhibition of either fibrin or LPS activation)”. For the same compound, the “Quadrant (FIG. 5b)” value in data set [4] (setting [12]) was “Q3”; in data set [4] (Table 1, screen at 10 μM), “Q3”; in data set [4] (setting [14]) it was “Q3”. In addition, the “Cherry-picked Hit (Suppl. Table 7)” value in data set [4] (setting [13]) was “HIT (Hits were defined as molecules that exhibited greater than 50% inhibition of either fibrin or LPS activation)”. The “Fibrin % cell toxicity” value with primary rat microglia [6] turned out to be 1%. Further, the Fibrin % inhibition in data set [7] (setting [15]) was found to be 51%.

Consider `CC[C@]1(O)C[C@@H]2CN(CCc3c([nH]c4ccccc34)[C@@](C(=O)OC)(c3cc4c(cc3OC)N(C)[C@H]3[C@@](O)(C(N)=O)[C@H](O)[C@]5(CC)C=CCN6CC[C@]43[C@@H]65)C2)C1` [Vindesine, Vindesine Sulfate], for which the “LPS % cell toxicity” value in the data set on primary rat microglia [2] is on record as 9%. Moreover, the LPS % inhibition in data set [3] (10 µM) worked out at 102%. For the same compound, the “Quadrant (FIG. 5b)” value in data set [4] is “Q2”. Besides, in the data set with primary rat microglia [6], the “Fibrin % cell toxicity” value came to 30%. Also, the Fibrin % inhibition in data set [7] (10 µM) amounted to 106%.

As a reminder, the inhibition is the change of the read-out against control, counted positive when it falls. Regarding `CCOC(=O)C1=C[C@]2(CC)CCCN3CCc4c(n1c1ccccc41)[C@@H]32` [Vinpocetine], the “LPS % cell toxicity” value in the data set with primary rat microglia [2] (rat) is 0%. Moreover, the results for the inhibition at 10 µM in data set [3] (setting [16]) and in data set [7] (setting [17]) were 0% and -19%, respectively. Further, the “Quadrant (FIG. 5b)” value in data set [4] (setting [12]) is reported as “Q4”. Also, in the data set on primary rat microglia [6] (rat), the “Fibrin % cell toxicity” value is on record as 0%.

For `COc1cc(C(=O)NS(=O)(=O)c2ccccc2C)ccc1Cc1cn(C)c2ccc(NC(=O)OC3CCCC3)cc12` [Zafirlukast], in the data set on primary rat microglia [2] (rat), the “LPS % cell toxicity” value is on record as 1%. For the same compound, the inhibition at 10 µM in data set [3] (setting [16]) was 3%; in data set [7] (setting [17]) it was -21%. The “Quadrant (FIG. 5b)” value in data set [4] (setting [12]) was “Q4”. Besides, the “Fibrin % cell toxicity” value in the data set with primary rat microglia [6] (rat) is listed as 0%.

Turning to `Nc1ccn([C@H]2CC[C@@H](CO)O2)c(=O)n1` [Zalcitabine], the “LPS % cell toxicity” value with primary rat microglia [2] (rat) was determined as 0%. For the same compound, the inhibition at 10 µM in data set [3] (setting [16]) was 11%; in data set [7] (setting [17]) it was -10%. The “Quadrant (FIG. 5b)” value in data set [4] (setting [12]) is “Q4”. For the same compound, the “Fibrin % cell toxicity” value with primary rat microglia [6] (rat) is 0%.

Turning to `O=C1Cc2cc(CCN3CCN(c4nsc5ccccc45)CC3)c(Cl)cc2N1` [Ziprasidone Mesylate, Ziprasidone], in the data set on primary rat microglia [2], the “LPS % cell toxicity” value is given as 1%. Further, in data set [3] (setting [16]), the LPS % inhibition is listed as 35%. In addition, the “Quadrant (FIG. 5b)” value in data set [4] (setting [12]) is given as “Q4”. The “Fibrin % cell toxicity” value with primary rat microglia [6] worked out at 1%. In addition, the Fibrin % inhibition in data set [7] (setting [17]) came to 14%.

As to `Cc1ccc(-c2nc3ccc(C)cn3c2CC(=O)N(C)C)cc1` [Zolpidem, Zolpidem Tartrate], the “LPS % cell toxicity” value in the data set with primary rat microglia [2] was found to be 0%. Moreover, the LPS % inhibition in data set [3] (10 µM) is given as 4%. Also, the “Quadrant (FIG. 5b)” value in data set [4] is “Q4”. In addition, in the data set with primary rat microglia [6], the “Fibrin % cell toxicity” value is on record as 0%. Also, the Fibrin % inhibition in data set [7] (10 µM) was −12%.

As for Acriflavinium Hydrochloride, in the data set with primary rat microglia [2], the “LPS % cell toxicity” value was 63%. For the same compound, the LPS % inhibition in data set [3] (setting [11]) is given as 129%. Further, the “Quadrant (FIG. 5b)” value in data set [4] (setting [14]) was “Q2”. Also, the “Fibrin % cell toxicity” value in the data set with primary rat microglia [6] is given as 57%. Besides, the Fibrin % inhibition in data set [7] (setting [15]) came out at 110%.

With “Hydrocortisone hemisuccinate [reference compound]”, in the data set on primary rat microglia [2], the IC50 was more than 20 µM and the “LPS % cell toxicity” value stood at 1%. Also, in data set [3], the LPS % inhibition was determined as 64%, the LPS specificity is 0.1 and the LPS_HS is −1.10. In addition, in data set [3] (read-out: LPS IC50), the IC50 is 7 µM. The IC50 in data set [3] (setting [18]) worked out at 7 µM. The IC50 in data set [3] (read-out: LPS_IC50) worked out at 0.036 µM. Further, in data set [4], the Activity entry is reported as “fib/LPS”, the “Cherry-picked Hit (Suppl. Table 7)” value is reported as “HIT (key: HIT: Hits were defined as molecules that exhibited greater than 50% inhibition of either fibrin or LPS activation)”, the Hit result was “HIT (key: HIT: Hits were defined as molecules that exhibited greater than 50% inhibition of either fibrin or LPS activation)” and the “Quadrant (FIG. 5b)” value is given as “Q2”. In addition, in the data set on primary rat microglia [6], the “Fibrin % cell toxicity” value stood at 1% and the IC50 was more than 20 µM. In data set [7], the Fibrin % inhibition turned out to be 100%, the fib specificity amounted to 8.4 and the fib_HS was −0.39. For the same compound, the IC50 in data set [7] (read-out: Fibrin IC50) is 0.02 µM. In addition, in data set [7] (setting [19]), the IC50 came to 0.02 µM. Further, in data set [7] (read-out: fib_IC50), the IC50 worked out at 0.004 µM.

On to Modaline Sulfate, for which the “LPS % cell toxicity” value with primary rat microglia [2] amounted to 0%. For the same compound, the LPS % inhibition in data set [3] is 25%. Also, the “Quadrant (FIG. 5b)” value in data set [4] is given as “Q4”. In addition, the “Fibrin % cell toxicity” value in the data set on primary rat microglia [6] was 1%. For the same compound, in data set [7], the Fibrin % inhibition is −9%.

Consider “Prednisolone sodium phosphate [reference compound]”, for which the IC50 was more than 20 µM in the data set with primary rat microglia [2]; 4 µM in data set [3] (read-out: LPS IC50); 4 µM in data set [3] (setting [18]); more than 20 µM in the data set on primary rat microglia [6]; 0.1 µM in data set [7] (read-out: Fibrin IC50); 0.1 µM in data set [7] (setting [19]). Besides, the “LPS % cell toxicity” value in the data set with primary rat microglia [2] turned out to be 3%. Also, the LPS % inhibition in data set [3] is listed as 96%. Further, in data set [4], the “Cherry-picked Hit (Suppl. Table 7)” value was “HIT (key: HIT: Hits were defined as molecules that exhibited greater than 50% inhibition of either fibrin or LPS activation)”. In addition, the Hit result in data set [4] was “HIT (key: HIT: Hits were defined as molecules that exhibited greater than 50% inhibition of either fibrin or LPS activation)”. For the same compound, the “Quadrant (FIG. 5b)” value in data set [4] is given as “Q2”. In addition, the “Fibrin % cell toxicity” value in the data set with primary rat microglia [6] turned out to be 3%. For the same compound, the Fibrin % inhibition in data set [7] came to 108%.

With Sulfanilate Zinc, the “LPS % cell toxicity” value with primary rat microglia [2] worked out at 0%. Besides, the LPS % inhibition in data set [3] (10 µM) amounted to 15%. Moreover, in data set [4], the “Quadrant (FIG. 5b)” value is recorded as “Q4”. Moreover, the “Fibrin % cell toxicity” value in the data set with primary rat microglia [6] turned out to be 0%. In addition, the Fibrin % inhibition in data set [7] (10 µM) is −6%.

Regarding Vitamin A, the “LPS % cell toxicity” value in the data set on primary rat microglia [2] was found to be 0%. Moreover, the LPS % inhibition in data set [3] (setting [16]) worked out at 17%. Also, the “Quadrant (FIG. 5b)” value in data set [4] (setting [12]) is on record as “Q4”. Further, in the data set with primary rat microglia [6], the “Fibrin % cell toxicity” value amounted to 1%. For the same compound, the Fibrin % inhibition in data set [7] (setting [17]) amounted to 15%.
